The source of these data is ChEMBL document CHEMBL6109091, “Integrated computational and biosensor-based strategies for the discovery of allosteric SMYD3 ligands using diperodon as a starting point” (Bioorg Med Chem, 2025).

SMILES strings stand for the structures.

For this assay, the target named is T1, Histone-lysine N-methyltransferase SMYD3 (Homo sapiens, UniProt Q9H7B4).
T1 sequence (Q9H7B4 whole entry): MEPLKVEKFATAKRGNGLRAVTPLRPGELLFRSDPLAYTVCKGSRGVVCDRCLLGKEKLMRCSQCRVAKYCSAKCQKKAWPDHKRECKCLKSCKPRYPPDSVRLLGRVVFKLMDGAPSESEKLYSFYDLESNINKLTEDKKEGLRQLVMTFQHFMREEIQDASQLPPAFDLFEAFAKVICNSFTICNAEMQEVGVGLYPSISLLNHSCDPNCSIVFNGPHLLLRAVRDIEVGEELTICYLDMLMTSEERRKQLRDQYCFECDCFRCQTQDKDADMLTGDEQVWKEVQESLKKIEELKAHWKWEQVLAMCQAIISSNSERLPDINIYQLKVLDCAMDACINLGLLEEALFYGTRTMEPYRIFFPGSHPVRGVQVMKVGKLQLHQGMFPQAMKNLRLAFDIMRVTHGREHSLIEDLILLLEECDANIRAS
The assay is described as follows: Binding affinity to SMYD3 (unknown origin) assessed as dissociation constant by GCI biosensor based analysis.
For `CCC(C(=O)NC1CCCC1)N(C)Cc1ncc(C)[nH]1` (stereo unspecified), the Kd was about 180 µM.
With `Cc1ccsc1C(Cc1ccccc1)NC(=O)Cn1cncn1` (stereo unspecified) the figure was about 130 µM; with `Cc1cc(N2CCC(NC(C)c3sccc3C)C2=O)n(C)n1` (stereo unspecified), about 3 µM.
The result for `Cc1cc(NC(=O)CCCNC(=O)c2ccsc2)no1` reads about 210 µM.
Regarding `O=CNc1ccccc1` [FORMANILIDE], the Kd was about 80 µM.
`Cc1cccc(C)c1NC(=O)CN1CCCC1c1ccccc1` (stereo unspecified): the Kd was about 0.4 µM.

The Kd is the constant that tells how readily two partners part at equilibrium.
